Test results taken from ChEMBL document CHEMBL5226350, “NSAIDs: Old Acquaintance in the Pipeline for Cancer Treatment and Prevention─Structural Modulation, Mechanisms of Action, and Bright Future” (J Med Chem, 2021).

How the values were obtained:
A-431 = assay: Antitumor activity against human A-431 cells xenografted in sc dosed mouse assessed as tumor growth inhibition measured after 15 days in presence of diclofenac relative to control; type: functional; conditions: time 15 day
HT-29 [1] = assay: Antitumor activity against human HT-29 cells xenografted in sc dosed Apc/Min mouse assessed as reduction in tumor growth in presence of DFMO relative to control; type: functional
HT-29 [2] = assay: Antitumor activity against human HT-29 cells expressing Trx-1 xenografted in sc dosed mouse assessed as reduction in tumor volume in presence of DFMO by immunohistochemical staining based analysis relative to control; type: functional; design: scale not given: the % may be the effect or the level left
HT-29 [3] = assay: Antitumor activity against human HT-29 cells expressing Trx-1 xenografted in sc dosed mouse in presence of DFMO by immunohistochemical staining based analysis relative to control; type: functional
A549 = assay: Antitumor activity against human A549 cells xenografted in ip dosed mouse assessed as tumor growth inhibition at 200 mg/kg measured after 6 weeks relative to control; type: functional; design: scale not given: the % may be the effect or the level left
Mus musculus = assay: Inhibition of pancreatitis-accelerated acinar-to-ductal metaplasia in C57Bl/6J mouse harboring Kras G12D mutant at 100 mg/kg ,po administered via gavage measured after 3 weeks in presence of cerulein relative to control; type: toxicity, organism-based; conditions: 504 h
PANC-1 = assay: Antitumor activity against human PANC-1 cells xenografted in po dosed BALB/c mouse assessed as tumor growth inhibition measured after 30 days relative to control; type: functional; conditions: time 30 day
HT-29 [4] = assay: Antitumor activity against human HT-29 cells xenografted in sc dosed mouse assessed as reduction in tumor volume measured after 10 days relative to control; type: functional; design: scale not given: the % may be the effect or the level left; conditions: time 10 day
U-118-MG = assay: Antitumor activity against human U-118-MG cells xenografted in sc dosed BALB/c mouse assessed as tumor growth inhibition at 20 mg/kg measured after 29 days relative to control; type: functional; conditions: 696 h, time 29 day, read-out: TGI
HT-29 [5] = assay: Antitumor activity against human HT-29 cells xenografted in ip dosed mouse assessed as reduction in tumor volume measured after 21 days relative to control; type: functional; design: scale not given: the % may be the effect or the level left; conditions: time 21 day

NCCCC(N)(C(=O)O)C(F)F (stereo not given) [EFLORNITHINE]
TGI (A-431): 90%

CCOP(=O)(OCC)OCCCCOC(=O)CC1=C(C)/C(=C/c2ccc([S+](C)[O-])cc2)c2ccc(F)cc21 (stereo not given)
TGI (HT-29 [1]): 90% | Activity (HT-29 [2]): 83% | Activity (HT-29 [3]): 50%

CCOP(=O)(OCC)OCCCCNC(=O)C(C)c1ccc(CC(C)C)cc1 (stereo not given)
Activity (A549): >95%

CCOP(=O)(OCC)OCC(COC(=O)c1ccccc1OC(C)=O)OP(=O)(OCC)OCC (stereo not given)
inhibition at 100 mg/kg (Mus musculus): 83% | TGI (PANC-1): 78%

O=C(CCCO[N+](=O)[O-])Oc1ccccc1C(=O)Oc1ccc(-c2cc(=S)ss2)cc1
Activity (HT-29 [4]): 85%

CCOP(=O)(OCC)OCC(CNC(=O)C(C)c1ccc(CC(C)C)cc1)OP(=O)(OCC)OCC (stereo not given)
inhibition in vivo at 20 mg/kg (U-118-MG): 77%

CCOP(=O)(OCC)OCc1cccc(OC(=O)c2ccccc2OC(C)=O)c1
Activity (HT-29 [5]): >60%
